Source: ChEMBL document CHEMBL5576074, “[1,2,4]Triazolo[1,5-a]pyrimidine derivatives: Structure-activity relationship study leading to highly selective ENPP1 inhibitors” (Bioorg Med Chem Lett, 2024)

Experiments:
[1] = biological target: T1, Ectonucleotide pyrophosphatase/phosphodiesterase family member 3 (Homo sapiens) (UniProt O14638); test: Inhibition of ENPP3 (unknown origin) at 10 uM relative to control
T1 sequence (whole entry): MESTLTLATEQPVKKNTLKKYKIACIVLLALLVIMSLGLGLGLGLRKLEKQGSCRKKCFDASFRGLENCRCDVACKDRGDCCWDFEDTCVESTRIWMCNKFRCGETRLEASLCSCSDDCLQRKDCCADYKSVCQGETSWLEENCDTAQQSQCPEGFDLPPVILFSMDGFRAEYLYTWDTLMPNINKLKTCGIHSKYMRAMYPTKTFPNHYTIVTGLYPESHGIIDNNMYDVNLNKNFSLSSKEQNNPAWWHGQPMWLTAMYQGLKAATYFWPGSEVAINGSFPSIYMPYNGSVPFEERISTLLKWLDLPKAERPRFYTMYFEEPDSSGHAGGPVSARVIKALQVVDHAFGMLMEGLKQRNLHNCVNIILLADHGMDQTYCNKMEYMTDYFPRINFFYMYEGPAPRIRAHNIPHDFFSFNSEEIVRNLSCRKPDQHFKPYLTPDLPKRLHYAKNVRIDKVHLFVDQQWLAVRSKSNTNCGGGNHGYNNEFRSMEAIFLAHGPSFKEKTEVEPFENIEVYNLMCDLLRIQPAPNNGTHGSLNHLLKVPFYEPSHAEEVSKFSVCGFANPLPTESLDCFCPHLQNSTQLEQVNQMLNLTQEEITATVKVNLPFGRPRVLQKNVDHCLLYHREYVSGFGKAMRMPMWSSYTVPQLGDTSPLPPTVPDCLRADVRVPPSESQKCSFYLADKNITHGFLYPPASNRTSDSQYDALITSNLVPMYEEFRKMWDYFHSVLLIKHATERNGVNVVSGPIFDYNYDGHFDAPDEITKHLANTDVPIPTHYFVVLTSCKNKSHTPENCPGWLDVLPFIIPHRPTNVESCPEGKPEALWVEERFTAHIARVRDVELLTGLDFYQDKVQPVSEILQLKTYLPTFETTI

Autotaxin [2] = biological target: T2, Autotaxin (Homo sapiens, UniProt Q13822); test: Inhibition of ENPP2 (unknown origin) at 50 uM relative to control
[3] = biological target: T3, Glycerophosphocholine cholinephosphodiesterase ENPP6 (Homo sapiens, UniProt Q6UWR7); test: Inhibition of ENPP6 (unknown origin)
T3 sequence (Q6UWR7 whole entry): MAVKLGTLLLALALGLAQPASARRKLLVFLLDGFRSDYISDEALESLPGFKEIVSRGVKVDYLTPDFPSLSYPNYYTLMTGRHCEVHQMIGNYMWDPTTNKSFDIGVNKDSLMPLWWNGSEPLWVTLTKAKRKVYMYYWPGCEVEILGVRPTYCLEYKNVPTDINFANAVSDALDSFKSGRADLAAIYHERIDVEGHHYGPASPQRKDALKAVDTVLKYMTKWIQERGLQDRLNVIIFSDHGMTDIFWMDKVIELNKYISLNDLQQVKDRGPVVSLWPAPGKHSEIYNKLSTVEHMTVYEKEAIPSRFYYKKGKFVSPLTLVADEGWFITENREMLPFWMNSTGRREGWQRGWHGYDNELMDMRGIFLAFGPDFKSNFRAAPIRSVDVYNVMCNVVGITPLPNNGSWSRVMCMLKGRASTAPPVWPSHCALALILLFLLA

[4] = biological target: T4, Ectonucleotide pyrophosphatase/phosphodiesterase family member 1 (Homo sapiens, UniProt P22413); test: Inhibition of ENPP1 (unknown origin)
T4 sequence (P22413 whole entry): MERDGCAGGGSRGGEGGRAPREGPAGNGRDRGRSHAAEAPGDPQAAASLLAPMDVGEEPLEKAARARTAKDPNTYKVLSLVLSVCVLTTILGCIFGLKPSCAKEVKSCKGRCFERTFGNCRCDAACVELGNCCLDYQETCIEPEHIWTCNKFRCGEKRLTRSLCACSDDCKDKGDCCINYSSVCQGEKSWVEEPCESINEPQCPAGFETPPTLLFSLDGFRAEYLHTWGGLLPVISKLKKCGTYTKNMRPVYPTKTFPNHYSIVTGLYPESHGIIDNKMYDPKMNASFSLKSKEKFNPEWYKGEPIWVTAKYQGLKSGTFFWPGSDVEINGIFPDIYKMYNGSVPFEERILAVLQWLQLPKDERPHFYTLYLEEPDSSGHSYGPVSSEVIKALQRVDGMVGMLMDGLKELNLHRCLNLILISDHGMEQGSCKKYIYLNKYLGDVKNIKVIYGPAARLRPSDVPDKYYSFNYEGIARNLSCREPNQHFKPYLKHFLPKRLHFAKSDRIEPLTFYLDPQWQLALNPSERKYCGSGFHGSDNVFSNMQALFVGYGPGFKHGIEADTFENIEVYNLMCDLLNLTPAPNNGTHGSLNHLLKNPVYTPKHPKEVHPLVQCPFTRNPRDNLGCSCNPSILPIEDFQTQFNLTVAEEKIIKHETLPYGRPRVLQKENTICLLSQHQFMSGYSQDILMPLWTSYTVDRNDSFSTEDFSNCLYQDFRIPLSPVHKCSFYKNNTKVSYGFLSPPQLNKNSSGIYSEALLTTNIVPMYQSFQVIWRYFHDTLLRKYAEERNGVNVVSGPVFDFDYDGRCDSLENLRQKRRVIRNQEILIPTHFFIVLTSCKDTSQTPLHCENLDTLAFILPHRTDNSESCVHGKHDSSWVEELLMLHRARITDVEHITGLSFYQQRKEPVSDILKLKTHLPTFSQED

Autotaxin [5] = biological target: T2, Autotaxin; test: Inhibition of ENPP2 (unknown origin)
[6] = biological target: T5, Ectonucleotide pyrophosphatase/phosphodiesterase family member 3 (Homo sapiens, UniProt O14638); test: Inhibition of ENPP3 (unknown origin) assessed as reduction in 2'3'-cGAMP hydrolysis by AMP-Glo assay
T5 sequence (O14638 whole entry): T1 sequence (whole entry)

[7] = biological target: T5, Ectonucleotide pyrophosphatase/phosphodiesterase family member 3; test: Inhibition of ENPP3 (unknown origin)
[8] = biological target: T1, Ectonucleotide pyrophosphatase/phosphodiesterase family member 3 (Homo sapiens); test: Inhibition of ENPP3 (unknown origin) at 50 uM relative to control
[9] = biological target: T1, Ectonucleotide pyrophosphatase/phosphodiesterase family member 3 (Homo sapiens); test: Inhibition of ENPP3 (unknown origin) assessed as reduction in ATP hydrolysis at 50 uM by AMP-Glo assay relative to control
[10] = biological target: T1, Ectonucleotide pyrophosphatase/phosphodiesterase family member 3 (Homo sapiens); test: Inhibition of ENPP3 (unknown origin) assessed as reduction in 2'3'-cGAMP hydrolysis at 50 uM by AMP-Glo assay relative to control
[11] = biological target: T5, Ectonucleotide pyrophosphatase/phosphodiesterase family member 3; test: Inhibition of ENPP3 (unknown origin) assessed as reduction in ATP hydrolysis by AMP-Glo assay
[12] = biological target: T6, Glycerophosphocholine cholinephosphodiesterase ENPP6 (Homo sapiens) (UniProt Q6UWR7); test: Inhibition of ENPP6 (unknown origin) at 50 uM relative to control
T6 sequence (whole entry): T3 sequence (Q6UWR7 whole entry)

THP1-Dual = test: Cytotoxicity against human THP1-Dual cells upto 50 uM; assay type: toxicity, cell-based
[13] = Cytotoxicity against human HepG2-Dual cells upto 50 uM; assay type: toxicity, cell-based; settings: hepg2, 50 µM
[14] = biological target: T4, Ectonucleotide pyrophosphatase/phosphodiesterase family member 1; test: Inhibition of ENPP1 (unknown origin) assessed as reduction in 2'3'-cGAMP hydrolysis by AMP-Glo assay
[15] = biological target: T4, Ectonucleotide pyrophosphatase/phosphodiesterase family member 1; test: Inhibition of ENPP1 (unknown origin) assessed as reduction in ATP hydrolysis by AMP-Glo assay

Compound	inhibition [1]	inhibition (Autotaxin [2])	IC50 [3]	IC50 [4]	IC50 (Autotaxin [5])	IC50 [6]	IC50 [7]	inhibition [8]	inhibition [9]	inhibition [10]	IC50 [11]	inhibition [12]	IC50 [14]	IC50 [15]	Activity (THP1-Dual)	Activity [13]
CCc1nc2ncnn2c(N(CC)Cc2ccccc2)c1Cc1ccccc1	2%															
Cc1nc2ncnn2c(NCc2ccc(C(=O)O)cc2)c1Cc1cccc(N)c1		8.9%	> 50 µM	1.1 µM	> 50 µM	> 50 µM	> 50 µM	33%	1.6%	< 1%	> 50 µM	< 1%	9 µM	8.6 µM	Non-Toxic	Non-Toxic
Cc1nc2ncnn2c(N(C)C)c1Cc1cccc(O)c1		31%	> 50 µM	0.42 µM	> 50 µM	> 50 µM	> 50 µM	24%	< 1%	< 1%	> 50 µM	< 1%	1.4 µM	1.8 µM	Non-Toxic	Non-Toxic
Cc1nc2ncnn2c(N(C)C)c1CC1CCCCC1		< 1%	> 50 µM	> 30 µM	> 50 µM		> 50 µM	3.7%				< 1%				
Cc1nc2ncnn2c(N(C)C)c1Cc1cccc(Cl)c1		19%	> 50 µM	1.1 µM	> 50 µM		> 50 µM	8.7%				1.3%				
Cc1nc2ncnn2c(N(C)C)c1Cc1cccc(-c2ccccc2)c1		6.1%	> 50 µM	21 µM	> 50 µM		> 50 µM	5.9%				< 1%				
Cc1nc2ncnn2c(N(C)C)c1Cc1cccc(N)c1		11%	> 50 µM	0.26 µM	> 50 µM	> 50 µM	> 50 µM	24%	4.2%	2.2%	> 50 µM	< 1%	0.82 µM	0.85 µM	Non-Toxic	Non-Toxic
Cc1nc2ncnn2c(NCc2ccccc2)c1Cc1cccc(N)c1		< 1%	> 50 µM	9 µM	> 50 µM		> 50 µM	11%				< 1%				

More lines, main results first:

inhibition [1]	inhibition (Autotaxin [2])	IC50 [3]	IC50 [4]	IC50 (Autotaxin [5])	IC50 [6]	IC50 [7]	inhibition [8]	inhibition [9]	inhibition [10]	IC50 [11]	inhibition [12]	IC50 [14]	IC50 [15]	Compound	Activity (THP1-Dual)	Activity [13]
2%														Cc1nc2ncnn2c(N2CCC(C)CC2)c1Cc1ccccc1		
19%	31%	> 50 µM	0.74 µM	> 50 µM	> 50 µM	> 50 µM	6.3%	7.5%	< 1%	> 50 µM	< 1%			Cc1nc2ncnn2c(N(C)C)c1Cc1ccccc1		
1%														Cc1nc2ncnn2c(N2CCCCC2)c1Cc1ccccc1		
	12%	> 50 µM	32 µM	> 50 µM		> 50 µM	5.2%				3.8%			CCCNc1c(Cc2ccccc2)c(C)nc2ncnn12		
	< 1%	> 50 µM	23 µM	> 50 µM		> 50 µM	3.6%				< 1%			Cc1nc2ncnn2c(N(C)C)c1CCc1ccccc1		
16%														Cc1nc2ncnn2c(N2CCCC2)c1Cc1ccccc1		
5%														Cc1nc2ncnn2c(N2CCCCCC2)c1Cc1ccccc1		
	< 1%	> 50 µM	> 30 µM	> 50 µM		> 50 µM	4.3%				< 1%			Cc1nc2ncnn2c(NCCO)c1Cc1ccccc1		
